# Source: ChEMBL document CHEMBL2016461, “A new pancreatic lipase inhibitor from Broussonetia kanzinoki” (Bioorg Med Chem Lett, 2012)
# Active and inactive are the calls of the source. The calls are words filed in the database; no cut-off is given here.
# How the values were obtained:
# [1] = biological target: T1, Pancreatic triacylglycerol lipase (Sus scrofa, UniProt P00591); assay: Inhibition of porcine pancreatic lipase using p-nitrophenylbutyrate as substrate preincubated for 15 mins prior substrate addition measured after 15 mins by spectrophotometry
# T1 sequence (P00591 whole entry): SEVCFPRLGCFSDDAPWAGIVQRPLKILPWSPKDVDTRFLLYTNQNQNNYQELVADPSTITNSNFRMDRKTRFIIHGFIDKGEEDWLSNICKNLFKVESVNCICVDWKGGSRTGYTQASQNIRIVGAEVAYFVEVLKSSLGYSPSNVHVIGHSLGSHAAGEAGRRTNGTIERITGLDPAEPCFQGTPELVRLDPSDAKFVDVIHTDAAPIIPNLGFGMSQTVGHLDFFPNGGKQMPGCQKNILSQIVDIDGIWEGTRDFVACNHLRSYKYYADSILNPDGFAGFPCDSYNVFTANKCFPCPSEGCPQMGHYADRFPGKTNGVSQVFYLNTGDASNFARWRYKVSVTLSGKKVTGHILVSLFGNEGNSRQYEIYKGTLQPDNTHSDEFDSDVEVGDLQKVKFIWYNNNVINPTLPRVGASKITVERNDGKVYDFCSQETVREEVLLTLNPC
# [2] = biological target: T2, Pancreatic triacylglycerol lipase (Sus scrofa) (UniProt P00591); assay: Inhibition of porcine pancreatic lipase using p-nitrophenylbutyrate as substrate at 100 uM preincubated for 15 mins prior substrate addition measured after 15 mins by spectrophotometry
# T2 sequence (whole entry): T1 sequence (P00591 whole entry)
# [3] = biological target: T2, Pancreatic triacylglycerol lipase (Sus scrofa); conditions: 1 uM
# Description: Inhibition of porcine pancreatic lipase using p-nitrophenylbutyrate as substrate at 1 uM preincubated for 15 mins prior substrate addition measured after 15 mins by spectrophotometry
# [4] = test system: 3T3-L1; assay: Antiadipogenic activity in mouse 3T3L1 cells assessed as cell differentiation measuring inhibition of fat accumulation at 100 uM after 8 days by oil red O-staining based spectrophotometry relative to control; format: functional; conditions: 3T3-L1, 192 h
# [5] = biological target: T2, Pancreatic triacylglycerol lipase (Sus scrofa); assay: Non-competitive inhibition of porcine pancreatic lipase using p-nitrophenylbutyrate as substrate preincubated for 15 mins prior substrate addition measured after 15 mins by Lineweaver-Burk plot analysis
# [6] = test system: 3T3-L1; assay: Antiadipogenic activity in mouse 3T3L1 cells assessed as cell differentiation measuring fat accumulation at 100 uM after 8 days by oil red O-staining based spectrophotometry relative to control; format: functional
IC50 [1],inhibition [2],inhibition [3],inhibition [5],SMILES,inhibition at 100 µM [4],Activity [6]
> 100 µM,24.8%,–,–,COc1ccc(C2CCc3ccc(O)cc3O2)cc1O (stereo not drawn),–,–
> 100 µM,21.8%,–,–,COc1ccc(-c2oc3cc(O)ccc3c(=O)c2O)cc1,–,–
> 100 µM,38.2%,–,–,COc1ccc(-c2oc3cc(O)ccc3c(=O)c2O)cc1O,–,–
85.1 µM,55.6%,–,–,Oc1ccc(C2CCc3ccc(O)cc3O2)cc1 (stereo not drawn),–,–
–,–,60.4%,–,CCCCCCCCCCC[C@@H](C[C@@H]1OC(=O)[C@H]1CCCCCC)OC(=O)[C@H](CC(C)C)NC=O,–,–
98.7 µM,50.7%,–,–,COc1ccc(CCCc2ccc(O)cc2)c(O)c1 [BROUSSONIN A],–,–
75.4 µM,40.4%,–,–,COc1cc(O)ccc1CCCc1ccc(O)cc1 [BROUSSONIN B],48%,–
28.4 µM,71.9%,–,Active,COC1=CC(=O)C=CC1(O)CCCc1ccc(O)cc1 (stereo not drawn) [BROUSSONONE A],–,66%
